For this assay, the target named is T1, NTMT1 (Homo sapiens, UniProt Q9BV86).
T1 sequence (Q9BV86 1-223): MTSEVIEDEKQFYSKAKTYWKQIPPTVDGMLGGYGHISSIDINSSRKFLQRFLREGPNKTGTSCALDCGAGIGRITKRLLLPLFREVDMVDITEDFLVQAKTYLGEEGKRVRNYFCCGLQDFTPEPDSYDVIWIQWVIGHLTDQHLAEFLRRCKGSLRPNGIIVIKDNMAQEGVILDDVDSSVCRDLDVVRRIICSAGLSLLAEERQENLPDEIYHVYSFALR
Put plainly: SAHH-coupled fluorescence assay of NTMT1 inhibition. Format: biochemical. Particulars: at 10 μM.

Here are results for one compound from publication PMC6760264 (Journal of medicinal chemistry, 2019).

`Nc1ncnc2c1ncn2[C@@H]1O[C@H](CN(CCCN2CCC[C@H]2C(=O)O)CC[C@H](N)C(=O)O)[C@@H](O)[C@H]1O` [Compound 14, (3-(((S)-3-Amino-3-carboxypropyl)(((2R,3S,4R,5S)-5-(6-amino-9H-purin-9-yl)-3,4-dihydroxytetrahydrofuran-2-yl)-methyl)amino)propyl)-l-proline]: the “inhibition against NTMT1” value is “did not show any significant inhibition”.
